Measured values as given in ChEMBL document CHEMBL5244281, “Tackling multidrug-resistant Staphylococcus aureus by natural products and their analogues acting as NorA efflux pump inhibitors” (Bioorg Med Chem, 2023).
In brackets after ≈: the same amount, converted by molar mass.

Experiments:
[1] = target: T1, Quinolone resistance protein NorA (Staphylococcus aureus) (UniProt P0A0J7); experiment: Modulation of norfloxacin-induced inhibition of NorA efflux pump in Staphylococcus aureus 1199B overexpressing NorA efflux pump assessed as reduction in norfloxacin MIC at 1/4 times of MIC by resazurin based assay
T1 sequence (whole entry): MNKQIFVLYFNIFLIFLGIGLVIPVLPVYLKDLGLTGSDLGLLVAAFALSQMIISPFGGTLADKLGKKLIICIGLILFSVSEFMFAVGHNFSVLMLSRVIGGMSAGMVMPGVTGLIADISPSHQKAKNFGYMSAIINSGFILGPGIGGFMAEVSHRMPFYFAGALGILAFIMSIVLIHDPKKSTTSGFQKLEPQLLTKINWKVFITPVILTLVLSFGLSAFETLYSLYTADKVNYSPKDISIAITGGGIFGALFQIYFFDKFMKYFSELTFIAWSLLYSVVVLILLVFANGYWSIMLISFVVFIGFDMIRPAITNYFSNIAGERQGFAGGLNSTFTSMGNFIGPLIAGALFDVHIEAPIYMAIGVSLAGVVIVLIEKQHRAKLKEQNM

[2] = target: T1, Quinolone resistance protein NorA (Staphylococcus aureus); experiment: Modulation of EtBr -induced inhibition of NorA efflux pump in Staphylococcus aureus 1199B overexpressing NorA efflux pump assessed as reduction in EtBr MIC at 1/4 times of MIC using EtBr as substrate by resazurin based assay
Staphylococcus aureus [3] = experiment: Antibacterial activity against norfloxacin resistant Staphylococcus aureus 1199B overexpressing NorA assessed as bacterial growth inhibition incubated for 24 hrs by resazurin based broth microdilution method; assay type: functional
Staphylococcus aureus [4] = experiment: Antibacterial activity against norfloxacin resistant Staphylococcus aureus 1199 assessed as bacterial growth inhibition incubated for 24 hrs by resazurin based broth microdilution method; assay type: functional
Staphylococcus aureus [5] = experiment: Antibacterial activity against Staphylococcus aureus ATCC25923 assessed as bacterial growth inhibition incubated for 18 hrs by MTT assay; assay type: functional
Staphylococcus aureus [6] = experiment: Antibacterial activity against Staphylococcus aureus EMRSA-15 assessed as bacterial growth inhibition incubated for 18 hrs by MTT assay; assay type: functional
Staphylococcus aureus [7] = experiment: Antibacterial activity against Staphylococcus aureus RN4220 assessed as bacterial growth inhibition incubated for 18 hrs by MTT assay; assay type: functional
Staphylococcus aureus [8] = experiment: Antibacterial activity against Staphylococcus aureus 1199B overexpressing NorA assessed as bacterial growth inhibition incubated for 18 hrs by MTT assay; assay type: functional
Staphylococcus aureus [9] = experiment: Antibacterial activity against tetracycline-resistant Staphylococcus aureus XU212 assessed as bacterial growth inhibition incubated for 18 hrs by MTT assay; assay type: functional
Staphylococcus aureus [10] = experiment: Antibacterial activity against methicillin-resistant Staphylococcus aureus 1199B overexpressing NorA gene assessed as bacterial growth inhibition; assay type: functional
[11] = target: T1, Quinolone resistance protein NorA (Staphylococcus aureus); experiment: Potentiation of EtBr-induced inhibition of NorA efflux pump in Staphylococcus aureus 1199A assessed as reduction in EtBr MIC at 1/8 times of MIC incubated for 24 hrs by resazurin based broth microdilution method (Rvb=32 ug/ml)
[12] = target: T1, Quinolone resistance protein NorA (Staphylococcus aureus); experiment: Potentiation of norfloxacin-induced inhibition of NorA efflux pump in Staphylococcus aureus 1199A assessed as reduction in norfloxacin MIC at 1/8 times of MIC incubated for 24 hrs by resazurin based broth microdilution method (Rvb= […] ug/ml)
[13] = target: T1, Quinolone resistance protein NorA (Staphylococcus aureus); experiment: Potentiation of EtBr-induced inhibition of NorA efflux pump in Staphylococcus aureus 1199B overexpressing NorA efflux pump assessed as reduction in EtBr MIC at 1/8 times of MIC incubated for 24 hrs by resazurin based broth microdilution method (Rvb= 32 ug/ml)
[14] = target: T1, Quinolone resistance protein NorA (Staphylococcus aureus); experiment: Potentiation of norfloxacin-induced inhibition of NorA efflux pump in Staphylococcus aureus 1199B overexpressing NorA efflux pump assessed as reduction in norfloxacin MIC at 1/8 times of MIC incubated for 24 hrs by resazurin based broth microdilution method (Rvb= 128 ug/ml)
Staphylococcus aureus [15] = experiment: Antibacterial activity against Staphylococcus aureus 1199 assessed as bacterial growth inhibition incubated for 24 hrs by broth microdilution method; assay type: functional
Staphylococcus aureus [16] = experiment: Antibacterial activity against NorA knockout Staphylococcus aureus K1758 assessed as bacterial growth inhibition incubated for 24 hrs by broth microdilution method; assay type: functional
Staphylococcus aureus [17] = experiment: Antibacterial activity against Staphylococcus aureus 1199B overexpressing NorA efflux gene assessed as bacterial growth inhibition incubated for 24 hrs by broth microdilution method; assay type: functional
Staphylococcus aureus [18] = experiment: Antibacterial activity against norfloxacin resistant Staphylococcus aureus 1199B overexpressing NorA assessed as bacterial growth inhibition incubated for 24 hrs by resazurin based microdilution assay; assay type: functional
Staphylococcus aureus [19] = experiment: Antibacterial activity against norfloxacin resistant Staphylococcus aureus RN4220 overexpressing MsrA efflux pump gene assessed as bacterial growth inhibition incubated for 18 to 24 hrs by NCCLS protocol based microdilution method; assay type: functional; settings: time 18-24 hrs
Staphylococcus aureus [20] = experiment: Antibacterial activity against norfloxacin resistant Staphylococcus aureus IS-58 overexpressing TetK efflux pump gene assessed as bacterial growth inhibition incubated for 18 to 24 hrs by NCCLS protocol based microdilution method; assay type: functional; settings: time 18-24 hrs
Staphylococcus aureus [21] = experiment: Antibacterial activity against norfloxacin resistant Staphylococcus aureus 1199B overexpressing NorA efflux pump gene assessed as bacterial growth inhibition incubated for 18 to 24 hrs by NCCLS protocol based microdilution method; assay type: functional; settings: time 18-24 hrs

O=C1C[C@@H](c2ccc(O)cc2)Oc2cc(O)cc(O)c21
MIC [1]: 32 µg/mL | MIC [2]: 16 µg/mL

C=CCc1ccccc1 [ALLYLBENZENE]
MIC (Staphylococcus aureus [3]): > 1020 µg/mL | MIC (Staphylococcus aureus [4]): > 1020 µg/mL

CC1(C)C=Cc2c(cc3occ(-c4ccc(O)cc4)c(=O)c3c2O)O1 [ALPINUMISOFLAVONE]
MIC (Staphylococcus aureus [5]): 32 µg/mL (≈ 95.1 µM) | MIC (Staphylococcus aureus [6]): 32 µg/mL (≈ 95.1 µM) | MIC (Staphylococcus aureus [7]): 32 µg/mL (≈ 95.1 µM) | MIC (Staphylococcus aureus [8]): 32 µg/mL (≈ 95.1 µM) | MIC (Staphylococcus aureus [9]): 32 µg/mL (≈ 95.1 µM)

COc1ccc(-c2oc3cc(OC)c(OC)c(O)c3c(=O)c2OC)cc1OC [ARTEMETIN]
MIC (Staphylococcus aureus [10]): 256 µg/mL (≈ 659 µM)

Cc1ccc(C(C)C)cc1O [CARVACROL]
MIC [11]: 25.4 µg/mL | MIC [12]: 32 µg/mL | MIC [13]: 16 µg/mL | MIC (Staphylococcus aureus [3]): 256 µg/mL (≈ 1700 µM) | MIC (Staphylococcus aureus [4]): 256 µg/mL (≈ 1700 µM) | MIC [14]: 64 µg/mL

C=CCc1ccc(O)c(OC)c1 [EUGENOL]
MIC (Staphylococcus aureus [3]): 128 µg/mL (≈ 780 µM) | MIC (Staphylococcus aureus [4]): 102 µg/mL (≈ 619 µM)

O=c1c(O)c(-c2ccccc2)oc2cc(O)cc(O)c12 [GALANGIN]
MIC (Staphylococcus aureus [15]): 125 µg/mL (≈ 463 µM) | MIC (Staphylococcus aureus [16]): 125 µg/mL (≈ 463 µM) | MIC (Staphylococcus aureus [17]): 250 µg/mL (≈ 925 µM)

CC[n+]1c(-c2ccccc2)c2cc(N)ccc2c2ccc(N)cc21.[Br-] [HOMIDIUM BROMIDE]
MIC (Staphylococcus aureus [18]): 32 µg/mL

O=c1c(O)c(-c2ccc(O)cc2)oc2cc(O)cc(O)c12 [KAEMPFEROL]
MIC (Staphylococcus aureus [15]): 125 µg/mL (≈ 437 µM) | MIC (Staphylococcus aureus [16]): 125 µg/mL (≈ 437 µM) | MIC (Staphylococcus aureus [17]): 250 µg/mL (≈ 873 µM)

COc1c2occc2cc2ccc(=O)oc12 [METHOXSALEN]
MIC (Staphylococcus aureus [19]): > 256 µg/mL | MIC (Staphylococcus aureus [20]): > 256 µg/mL | MIC (Staphylococcus aureus [21]): > 256 µg/mL

C=CCc1cc(OC)c(O)c(OC)c1 [METHOXYEUGENOL]
MIC (Staphylococcus aureus [3]): 128 µg/mL (≈ 659 µM) | MIC (Staphylococcus aureus [4]): 32 µg/mL (≈ 165 µM)

CCn1cc(C(=O)O)c(=O)c2cc(F)c(N3CCNCC3)cc21 [NORFLOXACIN]
MIC (Staphylococcus aureus [10]): 32 µg/mL (≈ 100 µM) | MIC (Staphylococcus aureus [18]): 64 µg/mL (≈ 200 µM)

COc1cc(O)c2c(=O)c(OC)c(-c3ccc(O)c(OC)c3)oc2c1 [PACHYPODOL]
MIC (Staphylococcus aureus [10]): 256 µg/mL (≈ 743 µM)

CC(C)=CCOc1c2occc2cc2ccc(=O)oc12 [PENTOSALEN]
MIC (Staphylococcus aureus [19]): > 256 µg/mL | MIC (Staphylococcus aureus [20]): > 256 µg/mL | MIC (Staphylococcus aureus [21]): > 256 µg/mL

O=C1C[C@@H](c2ccccc2)Oc2cc(O)cc(O)c21 [PINOCEMBRIN]
MIC (Staphylococcus aureus [15]): 250 µg/mL (≈ 976 µM) | MIC (Staphylococcus aureus [16]): 250 µg/mL (≈ 976 µM) | MIC (Staphylococcus aureus [17]): 500 µg/mL (≈ 1950 µM)

COc1ccc(-c2coc3cc(O)cc(O)c3c2=O)cc1O [PRATENSEIN]
MIC (Staphylococcus aureus [5]): 32 µg/mL (≈ 107 µM) | MIC (Staphylococcus aureus [6]): 32 µg/mL (≈ 107 µM) | MIC (Staphylococcus aureus [7]): 32 µg/mL (≈ 107 µM) | MIC (Staphylococcus aureus [8]): 32 µg/mL (≈ 107 µM) | MIC (Staphylococcus aureus [9]): 32 µg/mL (≈ 107 µM)

Cc1ccc(C(C)C)c(O)c1 [THYMOL]
MIC [11]: 25.4 µg/mL | MIC [12]: 32 µg/mL | MIC [13]: 16 µg/mL | MIC (Staphylococcus aureus [3]): 256 µg/mL (≈ 1700 µM) | MIC (Staphylococcus aureus [4]): 256 µg/mL (≈ 1700 µM) | MIC [14]: 64 µg/mL
